The results in this text go back to PubChem BioAssay (NCI).

Test systems include ACHN renal; CCRF-CEM leukemia; HS 578T breast; K-562 leukemia; M14 melanoma; RPMI-8226 leukemia; SK-MEL-2 melanoma; SNB-19 CNS; SW-620 colon; T-47D breast.
Holding throughout (assay): growth of human tumour cells (NCI), 48 h

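Exposure lasted 48 hours, with cells grown in 96-well plates and compounds tested at five concentrations. TGI: concentration producing complete growth inhibition.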 Where only a bound is given, the exact number is not on record here.

For `CC1(COS(=O)(=O)OCC2(C)COS(=O)(=O)OC2)COS(=O)(=O)OC1`, the TGI in the assay with ACHN renal is > 74 µM; in the assay with CCRF-CEM leukemia, > 64.4 µM; in the assay on HS 578T breast it was > 100 µM; with K-562 leukemia, > 100 µM; in the assay on M14 melanoma, > 100 µM; in the assay on RPMI-8226 leukemia it was > 50.1 µM. Further, the TGI in the assay with SK-MEL-2 melanoma, in the assay with SNB-19 CNS, in the assay with SW-620 colon and in the assay on T-47D breast was > 100 µM throughout.
Consider `O=C1/C(=C2\Sc3c(ccc(Cl)c3Cl)C2=O)Sc2c1ccc(Cl)c2Cl`, for which the TGI in the assay on ACHN renal, in the assay with CCRF-CEM leukemia, in the assay with HS 578T breast, with K-562 leukemia, with M14 melanoma and in the assay with RPMI-8226 leukemia was > 100 µM in each case. In addition, the TGI in the assay on SK-MEL-2 melanoma, in the assay with SNB-19 CNS, with SW-620 colon and in the assay with T-47D breast was > 100 µM in each case.
With `CCOc1cc(C2CC(c3ccc(NS(=O)(=O)c4cc([N+](=O)[O-])ccc4C)cc3)=NN2)ccc1O` (stereo not drawn), the TGI in the assay with ACHN renal is 76.7 µM; in the assay with CCRF-CEM leukemia it was > 100 µM; in the assay with HS 578T breast, > 100 µM; with K-562 leukemia, 99 µM; with M14 melanoma, 43.8 µM; with RPMI-8226 leukemia, > 100 µM. Moreover, the TGI in the assay on SK-MEL-2 melanoma is 49.9 µM; in the assay on SNB-19 CNS, > 100 µM; in the assay on SW-620 colon, > 100 µM; in the assay on T-47D breast, 82.9 µM.
Regarding `Cc1c(-c2ccccc2)c(C#N)c2nnc(C(N)=O)c(N)n12`, the TGI in the assay with ACHN renal, in the assay with CCRF-CEM leukemia, in the assay on HS 578T breast, in the assay on K-562 leukemia, in the assay on M14 melanoma and with RPMI-8226 leukemia was > 100 µM each time. The TGI in the assay on SK-MEL-2 melanoma, in the assay on SNB-19 CNS, in the assay on SW-620 colon and in the assay with T-47D breast was > 100 µM each time.
For `CC(=O)OCC=C(CCl)CCC(Br)C(C)(C)Br` (mixture of isomers), the TGI with ACHN renal, with CCRF-CEM leukemia, in the assay with HS 578T breast, in the assay on K-562 leukemia, in the assay with M14 melanoma and with RPMI-8226 leukemia was > 10 µM in each case. Further, the TGI in the assay with SK-MEL-2 melanoma, in the assay with SNB-19 CNS, in the assay with SW-620 colon and in the assay on T-47D breast was > 10 µM throughout.
As to `O=c1[nH]c(N/N=C\C(O)C(O)C(O)CO)nc2ccccc12` (stereo not drawn), the TGI with ACHN renal, with CCRF-CEM leukemia, in the assay on HS 578T breast, with K-562 leukemia, in the assay with M14 melanoma and in the assay on RPMI-8226 leukemia was > 100 µM throughout. The TGI in the assay on SK-MEL-2 melanoma, with SNB-19 CNS, with SW-620 colon and in the assay on T-47D breast was > 100 µM throughout.
In the case of `CCO/C(O)=C(/C(=N)N1CCCC1)C(=O)Nc1cccc(C(F)(F)F)c1`, the TGI was > 100 µM in the assay on ACHN renal; > 100 µM in the assay on CCRF-CEM leukemia; 70.6 µM in the assay on HS 578T breast; > 100 µM in the assay on K-562 leukemia; > 100 µM in the assay on M14 melanoma; > 100 µM with RPMI-8226 leukemia. In addition, the TGI in the assay with SK-MEL-2 melanoma, in the assay with SNB-19 CNS, in the assay with SW-620 colon and with T-47D breast was > 100 µM each time.
On to `CSC1=NS(=O)(=O)c2cc(C(=O)NN(C)C(=O)c3cc4c(cc3Cl)SC(SC)=NS4(=O)=O)c(Cl)cc2S1`, for which the TGI in the assay with ACHN renal, in the assay on CCRF-CEM leukemia, with HS 578T breast, in the assay with K-562 leukemia, in the assay with M14 melanoma and in the assay on RPMI-8226 leukemia was > 10 µM in each case. The TGI in the assay on SK-MEL-2 melanoma, in the assay on SNB-19 CNS, in the assay on SW-620 colon and in the assay on T-47D breast was > 10 µM throughout.
In the case of `NNc1nncn1N`, the TGI in the assay on ACHN renal is > 100 µM; in the assay with CCRF-CEM leukemia, 33.2 µM; in the assay on HS 578T breast, > 100 µM; in the assay with K-562 leukemia, > 100 µM; in the assay with M14 melanoma, > 100 µM; in the assay with RPMI-8226 leukemia it was > 100 µM. The TGI in the assay with SK-MEL-2 melanoma, in the assay on SNB-19 CNS, in the assay with SW-620 colon and in the assay on T-47D breast was > 100 µM throughout.
In the case of `CC(C)CNC(=O)Cn1c(-c2ccccc2)cc2ccccc21`, the TGI with ACHN renal, in the assay on CCRF-CEM leukemia, with HS 578T breast, with K-562 leukemia, in the assay on M14 melanoma and with RPMI-8226 leukemia was > 100 µM each time. For the same compound, the TGI in the assay with SK-MEL-2 melanoma, in the assay on SNB-19 CNS, in the assay on SW-620 colon and in the assay with T-47D breast was > 100 µM each time.
Consider `CCOC(=O)C(CS)NC(=O)CCCCCCCC(=O)NC(CS)C(=O)OCC` (stereo not drawn), for which the TGI in the assay with ACHN renal, in the assay with CCRF-CEM leukemia, with HS 578T breast, in the assay on K-562 leukemia, in the assay on M14 melanoma and in the assay on RPMI-8226 leukemia was > 100 µM in each case. Besides, the TGI in the assay on SK-MEL-2 melanoma, with SNB-19 CNS, in the assay with SW-620 colon and with T-47D breast was > 100 µM in each case.
For the compound `CSc1cc(N)ccc1N=Nc1ccc(S(N)(=O)=O)cc1`, the TGI in the assay on ACHN renal was 93 µM; with CCRF-CEM leukemia, 84.5 µM; with HS 578T breast, 73.9 µM; with K-562 leukemia, > 100 µM; in the assay with M14 melanoma it was > 100 µM; with RPMI-8226 leukemia, 38.4 µM. The TGI in the assay with SK-MEL-2 melanoma is 62.3 µM; in the assay with SNB-19 CNS, > 100 µM; in the assay on SW-620 colon it was > 100 µM; in the assay with T-47D breast, 58.3 µM.
`CCc1ccc2c(c1)CC1(C2)Cc2cc3c(cc2C1)C(=O)CC3` (stereo not drawn): the TGI is 63.9 µM with ACHN renal; 8.31 µM in the assay on CCRF-CEM leukemia; > 100 µM with HS 578T breast; 11.9 µM in the assay with K-562 leukemia; > 100 µM in the assay on M14 melanoma; 50.7 µM in the assay on RPMI-8226 leukemia. For the same compound, the TGI with SK-MEL-2 melanoma turned out to be 16.8 µM; in the assay with T-47D breast, 85 µM.
